Here are results for 10 compounds from ChEMBL document CHEMBL1201862, “PubChem BioAssay data set” (2004).

Common to all, as to assay: NCI-60 cell line screen, 48 h
Test [1] relates to NCI-H460.
Test [2] deals with NCI-H23.
The subject of test [3] is HCT-116.
The subject of test [4] is TK-10.
Test [5] concerns U-251.
Test [6] has as its system SR.
Test [7] deals with MDA-MB-231.
Test [8] has as its system SK-MEL-2.
The test system of test [9] is OVCAR-3.
In test [10] the test system is SW-620.
The subject of test [11] is ACHN.
Test [12] has as its system SNB-75.
The test system of test [13] is M14.
In test [14] the test system is T47D.
For test [15], the system named is SK-MEL-5.
Test [16] relates to Malme-3M.
Test [17] has as its system HCC 2998.
For test [18], the system named is NCI-H522.
In test [19] the test system is Hs-578T.

The structures appear in SMILES notation.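 Cells were grown in 96-well plates and exposed to each compound for 48 hours at five concentrations; endpoints were interpolated linearly between bracketing concentrations, or set to the highest concentration if not reached. Abbreviation: GI50, concentration required for 50% inhibition of growth.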 Activity calls are given as the source filed them. No stated cut-off is given here; in the data, active = GI50 up to about 1.1 µM and inactive = higher. Where a SMILES comes first, the peptide text is derived from it. The star is where a group is joined. Fmoc = O=C(OCC1c2ccccc2-c2ccccc21)*; OBn = c1ccc(CO*)cc1; tBu = CC(C)(C)*

As for `CCCCOCCOC1=CC(=O)c2c(O)ccc(O)c2C1=O`, the GI50 was 1.82 µM (inactive) in test [1]; 1.7 µM (inactive) in [2]; 1.49 µM (inactive) in [3]; 3.1 µM (inactive) in [4]; 1.7 µM (inactive) in [5]; 1.24 µM (inactive) in test [6]. Further, the GI50 in test [7] is 1.95 µM (inactive); in [8], 1.69 µM (inactive); in [9], 1.67 µM (inactive); in [10], 1.45 µM (inactive); in test [11], 1.72 µM (inactive); in [12], 1.57 µM (inactive). The GI50 in test [13] is 1 µM (active); in test [14], 2.06 µM (inactive); in test [15] it was 0.216 µM (active); in test [16], 0.24 µM (active); in [17], 1.88 µM (inactive); in test [18], 1.58 µM (inactive). For the same compound, the GI50 in test [19] was 2.22 µM (inactive).

Turning to `CC(OC(C)(C)C)C(NC(=O)OCC1c2ccccc2-c2ccccc21)C(=O)NC(Cc1ccccc1)C(=O)OCc1ccccc1` (stereo not given) (Fmoc-Thr(tBu)-Phe-OBn; configuration not given here), the GI50 in test [1] was > 100 µM (inactive); in test [2] it was > 100 µM (inactive); in test [3], > 100 µM (inactive); in test [4], > 100 µM (inactive); in test [5], > 100 µM (inactive); in test [6] it was > 87.9 µM (inactive). For the same compound, the GI50 in test [7] was > 48.4 µM (inactive); in test [8], > 100 µM (inactive); in test [9], > 100 µM (inactive); in test [10], > 100 µM (inactive); in test [11], > 100 µM (inactive); in [12], > 100 µM (inactive). The GI50 was > 100 µM (inactive) in test [13]; > 76.7 µM (inactive) in test [14]; > 100 µM (inactive) in test [15]; > 100 µM (inactive) in test [16]; > 100 µM (inactive) in test [17]; > 100 µM (inactive) in test [18]. The GI50 in test [19] is > 100 µM (inactive).

Consider `Cc1ccc(/N=N\c2c(O)c(S(=O)(=O)O)cc3cc(S(=O)(=O)O)ccc23)c(C)c1`, for which the GI50 in [1], in test [2], in test [3], in test [4], in test [5] and in test [6] was > 100 µM (inactive) throughout. The GI50 in [7], in test [8], in test [9], in test [10], in test [11] and in test [12] was > 100 µM (inactive) throughout. Further, the GI50 in test [13], in [14], in test [15], in test [16], in test [17] and in [18] was > 100 µM (inactive) each time. Also, the GI50 in [19] is > 100 µM (inactive).

In the case of `COc1cccc(-c2cc(O)c3cc(N4CCCC4)ccc3n2)c1`, the GI50 in test [1] was < 0.001 µM (active); in [2] it was 0.00279 µM (active); in test [3], < 0.001 µM (active); in test [4], 2.6 µM (inactive); in test [5], < 0.001 µM (active); in test [6] it was < 0.001 µM (active). The GI50 in test [7] was 0.00155 µM (active); in test [8] it was < 0.001 µM (active); in test [9], < 0.001 µM (active); in test [10] it was < 0.001 µM (active); in test [11] it was 0.00113 µM (active); in test [12], < 0.001 µM (active). In addition, the GI50 in test [13] is < 0.001 µM (active); in test [14], > 10 µM (inactive); in [15], < 0.001 µM (active); in test [16], < 0.001 µM (active); in [17], 0.00206 µM (active); in test [18], < 0.001 µM (active). Besides, the GI50 in [19] is < 0.001 µM (active).

Take `CC(C)(Cc1ccccc1)NC1=NCCO1`: the GI50 in [1], in test [2], in [3], in [4], in [5] and in test [6] was > 100 µM (inactive) throughout. The GI50 is > 100 µM (inactive) in test [7]; > 100 µM (inactive) in [8]; > 100 µM (inactive) in test [9]; > 100 µM (inactive) in test [10]; > 100 µM (inactive) in test [11]; 35.2 µM (inactive) in [12]. In addition, the GI50 in test [13] was > 100 µM (inactive); in test [14] it was > 10 µM (inactive); in test [15] it was > 100 µM (inactive); in test [16], > 100 µM (inactive); in test [17], > 100 µM (inactive); in test [18], > 100 µM (inactive). For the same compound, the GI50 in [19] is 76.4 µM (inactive).

`Cc1ccccc1OC(C)C(=O)NN1C(=O)CSC1c1ccccc1` (stereo not given): the GI50 in [1] was 93.5 µM (inactive); in test [2] it was 53.2 µM (inactive); in test [3], 53.1 µM (inactive); in [4], > 100 µM (inactive); in test [5], 96.4 µM (inactive); in test [6], 10.2 µM (inactive). Moreover, the GI50 in [7] is > 100 µM (inactive); in test [8], > 100 µM (inactive); in test [9] it was 58.7 µM (inactive); in test [10], > 100 µM (inactive); in test [11] it was 60.5 µM (inactive); in test [12], 60.7 µM (inactive). The GI50 in test [13] is > 100 µM (inactive); in test [14], 34.7 µM (inactive); in test [15], 32.2 µM (inactive); in [16], > 100 µM (inactive); in test [17], 63.2 µM (inactive); in test [18] it was 61.9 µM (inactive). Moreover, the GI50 in [19] is > 100 µM (inactive).

Regarding `N#Cc1nc(/C=C/c2ccccc2)oc1N`, the GI50 in [1] was > 100 µM (inactive); in test [2] it was > 100 µM (inactive); in [3], > 100 µM (inactive); in test [4], > 100 µM (inactive); in test [5], > 100 µM (inactive); in test [6] it was 0.252 µM (active). The GI50 in test [7], in test [8], in [9], in [10], in test [11] and in test [12] was > 100 µM (inactive) in each case. The GI50 in [13] was > 100 µM (inactive); in test [14] it was > 100 µM (inactive); in test [15], > 100 µM (inactive); in test [16], > 100 µM (inactive); in [17], > 100 µM (inactive); in test [18] it was 8.2 µM (inactive). Further, in test [19], the GI50 is > 100 µM (inactive).

For `CCOC(=O)c1c(N2CCCC2)[nH]c(=O)c(C(c2ccco2)c2c(O)c(C(=O)OCC)c(N3CCCC3)[nH]c2=O)c1O`, the GI50 in test [1] is > 100 µM (inactive); in test [2], > 100 µM (inactive); in test [3] it was > 100 µM (inactive); in test [4], > 100 µM (inactive); in [5] it was 73.8 µM (inactive); in test [6], > 100 µM (inactive). Moreover, the GI50 in test [7] was > 100 µM (inactive); in test [8] it was > 100 µM (inactive); in test [9], > 100 µM (inactive); in [10], > 100 µM (inactive); in test [11], 95.5 µM (inactive); in [12], 23.4 µM (inactive). The GI50 is > 100 µM (inactive) in test [13]; 19.4 µM (inactive) in [14]; 82.6 µM (inactive) in test [15]; > 100 µM (inactive) in test [16]; > 100 µM (inactive) in test [17]; 84.9 µM (inactive) in test [18]. Besides, in test [19], the GI50 is 27.9 µM (inactive).

Regarding `CSc1nc(=O)cnn1C`, the GI50 in test [1], in [2], in test [3], in test [4], in test [5] and in test [6] was > 100 µM (inactive) throughout. For the same compound, the GI50 in [7], in test [8], in test [9], in [10], in test [11] and in test [12] was > 100 µM (inactive) each time. Besides, the GI50 in test [13], in [14], in test [15], in test [16], in test [17] and in test [18] was > 100 µM (inactive) throughout. The GI50 in test [19] was > 100 µM (inactive).

As for `CC(=O)NCCC1CN(C(=O)/C=C\I)c2ccccc21` (stereo not given), the GI50 in test [1] is 9.75 µM (inactive); in [2], 16.4 µM (inactive); in test [3] it was 14.6 µM (inactive); in test [4], 6.17 µM (inactive); in test [5] it was 12.9 µM (inactive); in test [6], > 33.7 µM (inactive). The GI50 was 4.13 µM (inactive) in test [7]; 16 µM (inactive) in [8]; 15 µM (inactive) in test [9]; 12.7 µM (inactive) in test [10]; 14.5 µM (inactive) in test [11]; 17.8 µM (inactive) in [12]. Further, the GI50 in [13] was 11.7 µM (inactive); in test [14], 18.2 µM (inactive); in test [15] it was 3.48 µM (inactive); in test [16] it was 15.2 µM (inactive); in test [17] it was 15.2 µM (inactive); in [18], 1.78 µM (inactive). Moreover, the GI50 in test [19] is 27.2 µM (inactive).
